From PMC10813692 (2024)
Each block holds one compound with its values, some of them ahead of it.

Assays:
[1] = system: LxC (RNA, aptamer) GGGCAACUCCAAGCUAGAUCUACCGGUUUGGGUAGUGCGAUUCGCACUGAAUGCCGCGUAGGCUUCGCUACUGGCUUCUACUACGUACCCAAAAUGGCUAGCAAAGGAGAAGAACUUUUCACU; test: ITC; details: 0.25 mM K+, 20 mM Na+, 5 mM Mg2+; 1x CSB (40 mM HEPES pH 7.4), 25 °C; 30 µM RNA, 500 µM LFX; one-site model
[2] = system: LxCsh (RNA, aptamer) GGGUUUGGGUAGUGCGAUUCGCACUGAAUGCCGCGUAGGCUUCGCUACUGGCUUCUACUACGUACCCAAACCC; test: ITC; details: 0.25 mM K+, 20 mM Na+, 5 mM Mg2+; 1x CSB (40 mM HEPES pH 7.4), 25 °C; 30 µM RNA, 500 µM LFX; one-site model
[3] = system: M1 (RNA, aptamer) GGGUAUGGGUAGUGCGAUUCGCACUGAAUGCCGCGUAGGCUUCGCUACUGGCUUCUACUACGUACCCAUACCC; test: ITC; details: 0.25 mM K+, 20 mM Na+, 5 mM Mg2+; 1x CSB (40 mM HEPES pH 7.4), 25 °C; 30 µM RNA, 500 µM LFX; one-site model
[4] = system: M2 (RNA, aptamer) GGGUUUGCGUAGUGCGAUUCGCACUGAAUGCCGCGUAGGCUUCGCUACUGGCUUCUACUACGUACGCAAACCC; test: ITC; details: 0.25 mM K+, 20 mM Na+, 5 mM Mg2+; 1x CSB (40 mM HEPES pH 7.4), 25 °C; 30 µM RNA, 500 µM LFX; one-site model
[5] = system: M8 (RNA, aptamer) GGGUUUGGGUAGUCGAUUCGACUGAAUGCCGCGUAGGCUUCGCUACUGGCUUCUACUACGUACCCAAACCC; test: ITC; details: 0.25 mM K+, 20 mM Na+, 5 mM Mg2+; 1x CSB (40 mM HEPES pH 7.4), 25 °C; 30 µM RNA, 500 µM LFX; one-site model
[6] = system: M9 (RNA, aptamer) GGGUUUGGGUAGUCGUUCGCGACUGAAUGCCGCGUAGGCUUCGCUACUGGCUUCUACUACGUACCCAAACCC; test: ITC; details: 0.25 mM K+, 20 mM Na+, 5 mM Mg2+; 1x CSB (40 mM HEPES pH 7.4), 25 °C; 30 µM RNA, 500 µM LFX; one-site model
[7] = system: M3 (RNA, aptamer) GGGUUUGGGUAGUGCGAUUCGCACUGAAGCCGCGUAGGCUUCGCUACUGGCUUCUACUACGUACCCAAACCC; test: ITC; details: 0.25 mM K+, 20 mM Na+, 5 mM Mg2+; 1x CSB (40 mM HEPES pH 7.4), 25 °C; 30 µM RNA, 500 µM LFX in syringe
[8] = system: M4 (RNA, aptamer) GGGUUUGGGUAGUGCGAUUCGCACUGAAUGCCGGUAGGCUUCGCUACUGGCUUCUACUACGUACCCAAACCC; test: ITC; details: 0.25 mM K+, 20 mM Na+, 5 mM Mg2+; 1x CSB (40 mM HEPES pH 7.4), 25 °C; 30 µM RNA, 500 µM LFX in syringe
[9] = system: M5 (RNA, aptamer) GGGUUUGGGUAGUUUCGACUGAAUGCCGCGUAGGCUUCGCUACUGGCUUCUACUACGUACCCAAACCC; test: ITC; details: 0.25 mM K+, 20 mM Na+, 5 mM Mg2+; 1x CSB (40 mM HEPES pH 7.4), 25 °C; 30 µM RNA, 500 µM LFX in syringe
[10] = system: M6 (RNA, aptamer) GGGUUUGGGUAGCGAUUCGCUGAAUGCCGCGUAGGCUUCGCUACUGGCUUCUACUACGUACCCAAACCC; test: ITC; details: 0.25 mM K+, 20 mM Na+, 5 mM Mg2+; 1x CSB (40 mM HEPES pH 7.4), 25 °C; 30 µM RNA, 500 µM LFX in syringe
[11] = system: M7 (RNA, aptamer) GGGUUUGGGUAUGAAUGCCGCGUAGGCUUCGCUACUGGCUUCUACUACGUACCCAAACCC; test: ITC; details: 0.25 mM K+, 20 mM Na+, 5 mM Mg2+; 1x CSB (40 mM HEPES pH 7.4), 25 °C; 30 µM RNA, 500 µM LFX in syringe
[12] = system: M10 (RNA, aptamer) GGGUUUGGGUAGUGCGAUUCGCACUGAAUGCCGCGUAGUUCGCUACUGGCUUCUACUACGUACCCAAACCC; test: ITC; details: 0.25 mM K+, 20 mM Na+, 5 mM Mg2+; 1x CSB (40 mM HEPES pH 7.4), 25 °C; 30 µM RNA, 500 µM LFX in syringe
[13] = system: M11 (RNA, aptamer) GGGUUUGGGUAGUGCGAUUCGCACUGAAUGCUUCGGCUUCUACUACGUACCCAAACCC; test: ITC; details: 0.25 mM K+, 20 mM Na+, 5 mM Mg2+; 1x CSB (40 mM HEPES pH 7.4), 25 °C; 30 µM RNA, 500 µM LFX in syringe
[14] = system: M12 (RNA, aptamer) GGGUUUGGGUGAAUGCCGCGUAGGCUUCGCUACUGGCUUCUACUACGUACCCAAACCC; test: ITC; details: 0.25 mM K+, 20 mM Na+, 5 mM Mg2+; 1x CSB (40 mM HEPES pH 7.4), 25 °C; 30 µM RNA, 500 µM LFX in syringe
[15] = system: M13 (RNA, aptamer) GGGUUUGGGUAGAAUGCCGCGUAGGCUUCGCUACUGGCUUCUACUACGUACCCAAACCC; test: ITC; details: 0.25 mM K+, 20 mM Na+, 5 mM Mg2+; 1x CSB (40 mM HEPES pH 7.4), 25 °C; 30 µM RNA, 500 µM LFX in syringe
[16] = system: M14 (RNA, aptamer) GGGCGCACUGAAUGCCGCGUAGGCUUCGCUACUGGCUUCUACUACGUAUAGUGCGCCC; test: ITC; details: 0.25 mM K+, 20 mM Na+, 5 mM Mg2+; 1x CSB (40 mM HEPES pH 7.4), 25 °C; 30 µM RNA, 500 µM LFX in syringe
[17] = system: LxC (RNA, aptamer) GGGCAACUCCAAGCUAGAUCUACCGGUUUGGGUAGUGCGAUUCGCACUGAAUGCCGCGUAGGCUUCGCUACUGGCUUCUACUACGUACCCAAAAUGGCUAGCAAAGGAGAAGAACUUUUCACU; test: elution from immobilised Capture-ON; details: 0.25 mM K+, 20 mM Na+, 5 mM Mg2+, 1x CSB (40 mM HEPES pH 7.4), DNA Capture-ON displaced
[18] = system: LxA1 (RNA, aptamer) GGGCAACUCCAAGCUAGAUCUACCGGUUUUUUCAGGCGGCUUAAAAACCAGGAAAGGUGGAGACUUCUACUGGCUUCUAUCCAGCCGGUAAAAUGGCUAGCAAAGGAGAAGAACUUUUCACU; test: elution from immobilised Capture-ON; details: 0.25 mM K+, 20 mM Na+, 5 mM Mg2+; 1x CSB (40 mM HEPES pH 7.4); 1 mM LFX; DNA Capture-ON displaced
[19] = system: LxA2 (RNA, aptamer) GGGCAACUCCAAGCUAGAUCUACCGGUUUUUUCUGGCGGCUUAAAAACCAGGAAAGGUGGAGACUUCUACUGGCUUCUAUCCAGCCGGUAAAAUGGCUAGCAAAGGAGAAGAACUUUUCACU; test: elution from immobilised Capture-ON; details: 0.25 mM K+, 20 mM Na+, 5 mM Mg2+; 1x CSB (40 mM HEPES pH 7.4); 1 mM LFX; DNA Capture-ON displaced
[20] = system: LxB1 (RNA, aptamer) GGGCAACUCCAAGCUAGAUCUACCGGUGUGUAACGGAAGCACAAAGGUGCCUCCUACAGCAGGUCUUCUACUGGCUUCUACUGAUACACUAAAAUGGCUAGCAAAGGAGAAGAACUUUUCACU; test: elution from immobilised Capture-ON; details: 0.25 mM K+, 20 mM Na+, 5 mM Mg2+, 1x CSB (40 mM HEPES pH 7.4), DNA Capture-ON displaced
[21] = system: LxB2 (RNA, aptamer) GGGCAACUCCAAGCUAGAUCUACCGGUGUGUAACGGAAGCACAAAGGUGCCUCCUACAGCAGGUCUUCUACUGGCUUCUACUGAUACGCUAAAAUGGCUAGCAAAGGAGAAGAACUUUUCACU; test: elution from immobilised Capture-ON; details: 0.25 mM K+, 20 mM Na+, 5 mM Mg2+, 1x CSB (40 mM HEPES pH 7.4), DNA Capture-ON displaced
[22] = system: LxD (RNA, aptamer) GGGCAACUCCAAGCUAGAUCUACCGGUCUAGUGCCUCAACUAGCCGAACCGUGGUCGUCUUCAUGCCUACUGGCUUCUACGAGAUAAAUAAAAUGGCUAGCAAAGGAGAAGAACUUUUCACU; test: elution from immobilised Capture-ON; details: 0.25 mM K+, 20 mM Na+, 5 mM Mg2+, 1x CSB (40 mM HEPES pH 7.4), DNA Capture-ON displaced
[23] = system: LxE (RNA, aptamer) GGGCAACUCCAAGCUAGAUCUACCGGUCGUAGUGGACCUGUUUAGGUUUGCAUACGUUAGAUGUCUUCUACUGGCUUCUAAAUCGAACCGAAAAUGGCUAGCAAAGGAGAAGAACUUUUCACU; test: elution from immobilised Capture-ON; details: 0.25 mM K+, 20 mM Na+, 5 mM Mg2+; 1x CSB (40 mM HEPES pH 7.4); 1 mM LFX; DNA Capture-ON displaced
[24] = system: LxF (RNA, aptamer) GGGCAACUCCAAGCUAGAUCUACCGGUGCAGGUCUGGGAACUCGUUCCCGGCUCCAGCUGGAUUCUUCUACUGGCUUCUAGCCCGACCGGAAAAUGGCUAGCAAAGGAGAAGAACUUUUCACU; test: elution from immobilised Capture-ON; details: 0.25 mM K+, 20 mM Na+, 5 mM Mg2+; 1x CSB (40 mM HEPES pH 7.4); 1 mM LFX; DNA Capture-ON displaced
[25] = system: LxCsh (RNA, aptamer) GGGUUUGGGUAGUGCGAUUCGCACUGAAUGCCGCGUAGGCUUCGCUACUGGCUUCUACUACGUACCCAAACCC; test: lateral flow assay, Capture-ON displacement; details: 0.25 mM K+, 20 mM Na+, 5 mM Mg2+, 1x CSB (40 mM HEPES pH 7.4), room temperature, 6FAM Capture-ON displaced

Kd [1]: 6 µM
Kd [2]: 6 µM
Kd [3]: 5 ± 6 µM
Kd [4]: 4 ± 1 µM
Kd [5]: 6 ± 3 µM
Kd [6]: 3 ± 3 µM
binding [7]: no
binding [8]: no
binding [9]: no
binding [10]: no
binding [11]: no
binding [12]: no
binding [13]: no
binding [14]: no
binding [15]: no
binding [16]: no
fraction eluted ([17]; 1 mM LFX): 27.4%
binding [18]: yes
binding [19]: yes
binding ([20]; 1 mM LFX): yes
binding ([21]; 1 mM LFX): yes
fraction eluted ([22]; 1 mM LFX): 47.3%
binding [23]: yes
binding [24]: yes
binding ([25]; signal at 100 µM and above): yes
Compound: C[C@H]1COc2c(N3CCN(C)CC3)c(F)cc3c(=O)c(C(=O)O)cn1c23

binding ([17]; 1 mM CFX, LFX/CFX elution ratio 3.2): weak
binding ([20]; 1 mM CFX, LFX/CFX elution ratio 2.2): weak
binding ([21]; 1 mM CFX, LFX/CFX elution ratio 2.1): weak
binding ([22]; 1 mM CFX, LFX/CFX elution ratio 2.6): weak
binding ([25]; up to 5000 µM): weak
Compound: O=C(O)c1cn(C2CC2)c2cc(N3CCNCC3)c(F)cc2c1=O
